# Measured values reported in article PMC5665424, “Software-aided approach to investigate peptide structure and metabolic susceptibility of amide bonds in peptide drugs based on high resolution mass spectrometry” (PLoS ONE, 2017).
# Entries after “also recorded” stand apart in the source; their conditions may differ.
# Legend:
# chymotrypsin = chymotrypsin (Bos taurus, UniProt P00766); assay: Incubation with chymotrypsin in simulated intestinal fluid, LC-HRMS; conditions: for site of cleavage (amide hydrolysis) by chymotrypsin: chymotrypsin 500 μg/mL in SIF, 10 μM peptide, 37°C, up to 120 min, metabolite structures from LC-HRMS/MS (Mass-MetaSite)
# Method: (§4) Incubations with dataset-1 were performed using isolated enzymes. We investigated serine proteases like trypsin, chymotrypsin, and pancreatic elastase (E 3.4.21.1, E 3.4.21.4, E 3.4.21.36) at a concentration of 500 μg/mL in simulated intestinal fluid (SIF) and the aspartic protease pepsin (E 3.4.23.1) at a concentration of 500 μg/mL in simulated gastric fluid (SGF). Proteases were purchased from Sigma Aldrich and SIF and SGF were purchased from RICCA Chemical Company (Arlington, TX, USA). […] All incubations were conducted at 37°C.
# Negative control samples were prepared under the same conditions of the incubation (see above), containing each enzyme but without adding probe compounds. Probe compounds were added to 96-well plates (Micronic 0.75 mL V-bottom) using a Hewlett Packard HPD300e. […] Each well was a time point, with five timepoints (0, 5, 15, 45 and 120 min) per compound per protease. Incubations were carried out using a Hamilton MicroLab STAR Plus liquid-handler to initiate, conduct and stop incubation reactions within a single automated method. The incubation plates were placed in heated shakers present on the deck of the liquid-handler and operated at 37°C and 400 rpm shaking speed. Reactions were started with the addition of the enzyme at the appropriate time to allow for all reactions to be quenched at a single time. Incubation quenching was again carried out by the Hamilton STAR Plus with the addition of 100 μL of acetonitrile with 1% formic acid (FA) or 1% ammonium hydroxide (pepsin-only) and the internal standard (melanotan) at a concentration of 1 μM. Following reaction quenching, the samples were vortexed for approximately 2 min and the time zero sample was generated by aliquoting 50 nL of the appropriate stock compound into quenched control samples. The samples were then centrifuged in a Beckman Allegra 25R at 6000 rcf for 20 min at 10°C. Resulting supernatant was transferred to Eppendorf LoBind 96-well plates and 1 μL was injected onto a Waters Acquity BEH-C18 1 x 50 mm, 1.7 μm column via a Waters Acquity M-Class ultra-performance liquid chromatography (UPLC) autosampler. All time points were analyzed using a data-dependent MS/MS method.
# For dataset-1, chromatographic separation of metabolites was performed using the ACQUITY UPLC system (Waters, Milford, MA, USA). The ACQUITY UPLC BEH C18 column (1.0 × 50 mm, 1.7 μm) was heated to 60°C. The mobile phase consisted of 0.1% FA in water (eluent A) and 0.1% formic acid in acetonitrile (eluent B) at a flow rate of 75 μL/min. The initial condition was 10% eluent B, which was maintained for 0.1 min. Eluent B was then increased via a linear gradient to 40% until 3.1 min and further increased to 90% via linear gradient to 3.6 min. Eluent B was then held at 90% until 4.0 min when it was ramped down to 10% by 4.05 min and held until the end of the run at 6 min. […] Full scan/data-dependent MS/MS analyses were run on a Thermo Scientific Q-Exactive Plus mass spectrometer operated in positive electrospray ionization (ESI) mode. The MS and MS/MS acquisition scans were operated with a resolution setting of 17,500 for both, with an automatic gain control (AGC) setting of 1E6 and maximum injection time of 100 ms for MS and AGC of 2E5 and max injection time of 50 ms for full scan/data-dependent MS/MS.
# pancreatic elastase = target: T1, pancreatic elastase (Sus scrofa, UniProt P00772); assay: Incubation with pancreatic elastase in simulated intestinal fluid, LC-HRMS; assay type: in vitro ADME, porcine; conditions: elastase 500 μg/mL in SIF pH 7.4-7.6, 10 μM peptide, 37°C, 0, 5, 15, 45, 120 min, internal standard melanotan, Fig 11c
# T1 construct: porcine pancreas; purchased Sigma (Sigma Aldrich) E0258; host or cells: porcine pancreas (tissue-derived)
# T1 sequence (P00772 27-266): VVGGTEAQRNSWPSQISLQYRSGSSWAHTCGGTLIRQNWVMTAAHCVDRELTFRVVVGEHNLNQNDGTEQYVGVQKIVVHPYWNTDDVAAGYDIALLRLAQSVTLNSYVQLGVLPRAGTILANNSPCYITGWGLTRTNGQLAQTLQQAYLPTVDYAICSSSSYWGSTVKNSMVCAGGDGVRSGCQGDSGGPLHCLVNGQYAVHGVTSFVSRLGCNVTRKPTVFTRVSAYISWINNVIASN
# Method: (§1) Incubations with dataset-1 were performed using isolated enzymes. […] All incubations were conducted at 37°C.
# Supporting Table 1: Incubation conditions and proteases characteristics
# Chymotrypsin Trypsin Elastase Pepsin
# αChymotrypsin from Trypsin from Elastase from Pepsin from porcine
# Protease bovine pancreas, bovine pancreas, porcine pancreas, gastric mucosa,
# Internal Melanotan II acetate salt,
# Mobile Phase Water +0.1% formic acid
# Mobile Phase Acetonitrile+0.1% formic acid […]
# Quadrupole -Orbitrap Mass Spectrometer
# [1] = target: T2, dipeptidyl peptidase-4 (DPP-4) (Homo sapiens, UniProt P27487); assay: Incubation with dipeptidyl peptidase-4 in Hank's buffered salt solution, LC-HRMS; assay type: in vitro ADME; conditions: DPP-4 2 μg/mL in Hank's buffered salt solution
# T2 construct: purchased Sigma D3446; host or cells: Sf9 cells
# T2 sequence (P27487 whole entry): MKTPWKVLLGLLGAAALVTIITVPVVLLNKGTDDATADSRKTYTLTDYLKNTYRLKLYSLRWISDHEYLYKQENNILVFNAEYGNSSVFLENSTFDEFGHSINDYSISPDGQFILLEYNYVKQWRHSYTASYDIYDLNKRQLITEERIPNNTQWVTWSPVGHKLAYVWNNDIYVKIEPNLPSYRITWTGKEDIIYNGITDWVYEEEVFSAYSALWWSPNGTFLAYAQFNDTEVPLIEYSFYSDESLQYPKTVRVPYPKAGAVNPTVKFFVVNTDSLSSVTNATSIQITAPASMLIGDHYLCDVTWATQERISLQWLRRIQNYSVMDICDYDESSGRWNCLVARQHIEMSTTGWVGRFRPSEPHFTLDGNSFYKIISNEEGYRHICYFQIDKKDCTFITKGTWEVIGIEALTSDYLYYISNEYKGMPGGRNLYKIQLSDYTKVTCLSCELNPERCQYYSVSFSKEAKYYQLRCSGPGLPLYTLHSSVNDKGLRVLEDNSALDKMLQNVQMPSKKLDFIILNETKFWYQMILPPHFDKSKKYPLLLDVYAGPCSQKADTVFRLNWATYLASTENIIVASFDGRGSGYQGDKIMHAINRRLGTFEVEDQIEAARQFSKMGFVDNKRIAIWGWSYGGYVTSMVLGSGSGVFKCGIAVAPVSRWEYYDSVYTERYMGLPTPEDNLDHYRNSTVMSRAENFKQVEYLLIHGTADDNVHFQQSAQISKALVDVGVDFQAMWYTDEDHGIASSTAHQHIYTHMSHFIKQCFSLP
# Method: as §1
# (§2) The dataset-2 peptide incubations were performed at Roche Innovation Center Basel F. Hoffmann-La Roche Ltd., (Hoffmann-La Roche, Basel, Switzerland) using isolated enzymes. For both DPP-4 and NEP incubations, a solution of the respective enzyme in Hank’s buffered salt solution was pre-incubated at 37°C for 3 to 5 min, in 96-well plate Nunc (Thermo Scientific, 163320) before the addition of 30 μL of test substance to give final concentrations of 2 μg/mL DPP-4 or 2 μg/mL NEP. Negative control samples were prepared under the same conditions (see above), containing each enzyme but without adding test compound. […] Reactions were started with the addition of […] and then quenched at each time point with 75 μL cold acetonitrile containing 1% FA followed by thorough mixing. The samples were centrifuged at 4°C for 15 min at 14,000g, and the supernatant was collected. The metabolite profile was immediately analyzed.
# (§3) To generate dataset-2, a Thermo Scientific Dionex UltiMate 3000 RS UPLC system in combination with a Pal autosampler (CTC Analytics AG, Zwingen, Switzerland) was used. Chromatographic separation was performed using an Acquity CSHT Phenyl-Hexyl Column (1.7 μm, 2.1 x 100 mm). The mobile phases consisted of A: H2O/0.1% FA and B: methanol/0.1% FA. […]
# neprilysin (NEP) = neprilysin (NEP) (Homo sapiens, UniProt P08473); assay: Incubation with neprilysin in Hank's buffered salt solution, LC-HRMS; conditions: NEP 2 μg/mL in Hank's buffered salt solution, 37°C, 2, 4, 8, 24 hr (GLP-1 0, 5, 15, 30, 60 min), Fig 12b
# neprilysin (NEP), sequence (P08473 whole entry): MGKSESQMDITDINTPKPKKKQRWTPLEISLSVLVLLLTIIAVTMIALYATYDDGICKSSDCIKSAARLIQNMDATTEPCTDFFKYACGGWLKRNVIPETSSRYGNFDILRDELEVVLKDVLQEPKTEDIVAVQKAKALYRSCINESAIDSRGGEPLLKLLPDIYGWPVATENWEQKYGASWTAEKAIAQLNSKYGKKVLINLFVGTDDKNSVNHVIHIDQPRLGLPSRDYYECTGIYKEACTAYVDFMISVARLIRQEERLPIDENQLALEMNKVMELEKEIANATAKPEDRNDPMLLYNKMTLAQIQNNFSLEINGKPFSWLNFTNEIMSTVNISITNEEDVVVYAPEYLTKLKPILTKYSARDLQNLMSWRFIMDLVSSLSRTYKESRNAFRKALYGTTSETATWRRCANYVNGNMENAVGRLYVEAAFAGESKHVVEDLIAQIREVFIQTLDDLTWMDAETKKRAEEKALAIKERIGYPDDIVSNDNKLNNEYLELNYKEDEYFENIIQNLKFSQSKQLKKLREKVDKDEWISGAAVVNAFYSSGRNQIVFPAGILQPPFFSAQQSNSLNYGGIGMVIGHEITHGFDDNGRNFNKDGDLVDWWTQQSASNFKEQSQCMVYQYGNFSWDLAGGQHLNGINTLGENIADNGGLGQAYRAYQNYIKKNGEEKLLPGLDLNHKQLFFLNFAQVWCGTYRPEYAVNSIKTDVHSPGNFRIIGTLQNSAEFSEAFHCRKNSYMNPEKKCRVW
# Method: as §1, §2, §3
# trypsin = target: T3, trypsin (Bos taurus, UniProt P00760); assay: Incubation with trypsin in simulated intestinal fluid, LC-HRMS
# T3 sequence (P00760 24-246): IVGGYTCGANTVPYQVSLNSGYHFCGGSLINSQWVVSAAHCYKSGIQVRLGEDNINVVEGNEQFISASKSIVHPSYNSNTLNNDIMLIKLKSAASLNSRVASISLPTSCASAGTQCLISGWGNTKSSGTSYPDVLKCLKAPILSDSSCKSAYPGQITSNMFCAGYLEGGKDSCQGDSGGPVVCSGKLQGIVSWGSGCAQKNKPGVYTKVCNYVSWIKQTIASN
# Method: as §4
# Negative control samples were prepared under the same conditions of the incubation (see above), containing each enzyme but without adding probe compounds. Probe compounds were added to 96-well plates (Micronic 0.75 mL V-bottom) using a Hewlett Packard HPD300e. […] Each well was a time point, with five timepoints (0, 5, 15, 45 and 120 min) per compound per protease. Incubations were carried out using a Hamilton MicroLab STAR Plus liquid-handler to initiate, conduct and stop incubation reactions within a single automated method. The incubation plates were placed in heated shakers present on the deck of the liquid-handler and operated at 37°C and 400 rpm shaking speed. Reactions were started with the addition of the enzyme at the appropriate time to allow for all reactions to be quenched at a single time. Incubation quenching was again carried out by the Hamilton STAR Plus with the addition of 100 μL of acetonitrile with 1% formic acid (FA) or 1% ammonium hydroxide (pepsin-only) and the internal standard (melanotan) at a concentration of 1 μM. Following reaction quenching, the samples were vortexed for approximately 2 min and the time zero sample was generated by aliquoting 50 nL of the appropriate stock compound into quenched control samples. The samples were then centrifuged in a Beckman Allegra 25R at 6000 rcf for 20 min at 10°C. […] All time points were analyzed using a data-dependent MS/MS method. […]
molecule,measurement,setting,value
"CCNC(=O)[C@@H]1CCCN1C(=O)[C@H](CCCNC(=N)N)NC(=O)[C@H](CC(C)C)NC(=O)[C@@H](COC(C)(C)C)NC(=O)[C@H](Cc1ccc(O)cc1)NC(=O)[C@H](CO)NC(=O)[C@H](Cc1c[nH]c2ccccc12)NC(=O)[C@H](Cc1cnc[nH]1)NC(=O)[C@@H]1CCC(=O)N1 [buserelin, Buserelin]",site of cleavage (amide hydrolysis) by chymotrypsin,chymotrypsin,amide hydrolysis of the Trp-Ser bond; also recorded: amide hydrolysis of the Tyr-D-Ser(tBu) bond
"C[C@@H](O)[C@@H]1NC(=O)[C@H](CCCCN)NC(=O)[C@@H](Cc2c[nH]c3ccccc23)NC(=O)[C@H](Cc2ccccc2)NC(=O)[C@@H](NC(=O)[C@H](N)Cc2ccccc2)CSSC[C@@H](C(=O)N[C@H](CO)[C@@H](C)O)NC1=O [octreotide, Octreotide]","metabolic stability with pancreatic elastase: percent parent peptide remaining with respect to time, compared in words",pancreatic elastase,"digested significantly faster than the larger secretin and calcitonin, but it was slower than oxytocin"
"CCCCCCCCCCCCCCCC(=O)N[C@@H](CCC(=O)NCCCC[C@H](NC(=O)[C@H](C)NC(=O)[C@H](C)NC(=O)[C@H](CCC(N)=O)NC(=O)CNC(=O)[C@H](CCC(=O)O)NC(=O)[C@H](CC(C)C)NC(=O)[C@H](Cc1ccc(O)cc1)NC(=O)[C@H](CO)NC(=O)[C@H](CO)NC(=O)[C@@H](NC(=O)[C@H](CC(=O)O)NC(=O)[C@H](CO)NC(=O)[C@@H](NC(=O)[C@H](Cc1ccccc1)NC(=O)[C@@H](NC(=O)CNC(=O)[C@H](CCC(=O)O)NC(=O)[C@H](C)NC(=O)[C@@H](N)Cc1cnc[nH]1)[C@@H](C)O)[C@@H](C)O)C(C)C)C(=O)N[C@@H](CCC(=O)O)C(=O)N[C@@H](Cc1ccccc1)C(=O)N[C@H](C(=O)N[C@@H](C)C(=O)N[C@@H](Cc1c[nH]c2ccccc12)C(=O)N[C@@H](CC(C)C)C(=O)N[C@H](C(=O)N[C@@H](CCCNC(=N)N)C(=O)NCC(=O)N[C@@H](CCCNC(=N)N)C(=O)NCC(=O)O)C(C)C)[C@@H](C)CC)C(=O)O [liraglutide, Liraglutide]","metabolic stability with DPP-4: percent parent peptide remaining with respect to time, compared in words","[1]; 37°C, 2, 4, 8, 24 hr (GLP-1 0, 5, 15, 30, 60 min), LC-HRMS, Fig 12a",digested faster than the other compounds
same,site of cleavage (amide hydrolysis) by DPP-4,"[1]; 37°C, metabolite structures from LC-HRMS/MS (Mass-MetaSite)",mainly metabolized by DPP-4 at the SoC Ala-Glu
same,"metabolic stability with NEP: percent parent peptide remaining with respect to time, compared in words",neprilysin (NEP),digested faster than the other compounds; also recorded: NEP acted slower as compared to DPP-4
"Glp-His-Trp-Ser-Tyr-Ser-tBu-Leu-Arg-Pro-NHNHCONH2 [goserelin, Goserelin]",site of cleavage (amide hydrolysis) by trypsin,"trypsin; trypsin 500 μg/mL in SIF, 10 μM peptide, 37°C, up to 120 min, metabolite structures from LC-HRMS/MS (Mass-MetaSite)",also when the C-terminal Pro was modified to Pro-NHNHCONH2 in goserelin
"CC[C@H](C)[C@@H]1NC(=O)[C@H](Cc2ccc(O)cc2)NC(=O)[C@@H](N)CSSC[C@@H](C(=O)N2CCC[C@H]2C(=O)N[C@@H](CC(C)C)C(=O)NCC(N)=O)NC(=O)[C@H](CC(N)=O)NC(=O)[C@H](CCC(N)=O)NC1=O [oxytocin, Oxytocin]","metabolic stability with chymotrypsin: percent parent peptide remaining with respect to time, compared in words","chymotrypsin; chymotrypsin 500 μg/mL in SIF pH 7.4-7.6, 10 μM peptide, 37°C, 0, 5, 15, 45, 120 min, LC-HRMS, internal standard melanotan, Fig 11b",digested slower than calcitonin
same,site of cleavage (amide hydrolysis) by chymotrypsin,chymotrypsin,"cleavage of Leu-Gly; also recorded: Tyr-Ile (M1-38, cycle opening)"
same,"metabolic stability with trypsin: percent parent peptide remaining with respect to time, compared in words","trypsin; trypsin 500 μg/mL in SIF pH 7.4-7.6, 10 μM peptide, 37°C, 0, 5, 15, 45, 120 min, LC-HRMS, internal standard melanotan, Fig 11a",digested slower than calcitonin; also recorded: hydrolyzed slower than all other peptides
"Glp-His-Trp-Ser-Tyr-HisBzl-Leu-Arg-Pro-NHEt [histrelin, Histrelin, synthetic LHRH analogue, Sigma L2761]","metabolic stability with pancreatic elastase: percent parent peptide remaining with respect to time, compared in words",pancreatic elastase,slower than for leuprolide
